According to ChEMBL document CHEMBL3124894, “Lactam sulfonamides as potent inhibitors of the Kv1.5 potassium ion channel” (Bioorg Med Chem Lett, 2014):

Columns and labels:
[1] = Lipophilicity, log D of the compound by chromatography; assay type: physicochemical
[2] = target: T1, Potassium voltage-gated channel subfamily A member 5 (Homo sapiens, UniProt P22460); assay: Inhibition of human Kv1.5 ion channel expressed in CHO cells by patch clamp assay; assay type: cell-based
Oryctolagus cuniculus [3] = assay: Toxicity in New Zealand white rabbit assessed as CNS-like side effects at 0.1 to 1 umol/kg/min administered as infusion; assay type: organism-based; details: in vivo, iv
Oryctolagus cuniculus [4] = assay: Cardiotoxicity in New Zealand white rabbit assessed as QT interval at 0.1 to 1 umol/kg/min administered as infusion; assay type: toxicity, organism-based; details: in vivo, iv
Oryctolagus cuniculus [5] = assay: Antiarrhythmic activity in New Zealand white rabbit assessed as unbound steady-state plasma concentration giving 20% change in atrium effective refractory period at 0.1 to 1 umol/kg/min administered as infusion; assay type: functional
[6] = Oral bioavailability in Beagle dog at 2 umol/kg; assay type: ADME, organism-based, Canis lupus familiaris; details: in vivo
[7] = Oral bioavailability in Sprague-Dawley rat at 6 umol/kg; assay type: ADME, organism-based; details: in vivo
[8] = Terminal half life in Beagle dog at 1 umol/kg, iv and 2 umol/kg, po; assay type: ADME, organism-based, Canis lupus familiaris; details: in vivo, read-out: beta t1/2 (converted)
[9] = Terminal half life in Sprague-Dawley rat at 2 umol/kg, iv and 6 umol/kg, po; assay type: ADME, organism-based; details: in vivo, read-out: beta t1/2 (converted)
[10] = Clearance in Beagle dog at 1 umol/kg, iv and 2 umol/kg, po; assay type: ADME, organism-based, Canis lupus familiaris; details: in vivo
[11] = Clearance in Sprague-Dawley rat at 2 umol/kg, iv and 6 umol/kg, po; assay type: ADME, organism-based; details: in vivo
[12] = Intrinsic clearance in human liver microsomes assessed per mg protein; assay type: ADME; details: read-out: CLH
[13] = target: T1, Potassium voltage-gated channel subfamily A member 5; assay: Inhibition of Kv1.5 ion channel (unknown origin) expressed in CHO cells by Rb(+) efflux assay; assay type: cell-based

T1 sequence (P22460 whole entry, the tested form may be a part): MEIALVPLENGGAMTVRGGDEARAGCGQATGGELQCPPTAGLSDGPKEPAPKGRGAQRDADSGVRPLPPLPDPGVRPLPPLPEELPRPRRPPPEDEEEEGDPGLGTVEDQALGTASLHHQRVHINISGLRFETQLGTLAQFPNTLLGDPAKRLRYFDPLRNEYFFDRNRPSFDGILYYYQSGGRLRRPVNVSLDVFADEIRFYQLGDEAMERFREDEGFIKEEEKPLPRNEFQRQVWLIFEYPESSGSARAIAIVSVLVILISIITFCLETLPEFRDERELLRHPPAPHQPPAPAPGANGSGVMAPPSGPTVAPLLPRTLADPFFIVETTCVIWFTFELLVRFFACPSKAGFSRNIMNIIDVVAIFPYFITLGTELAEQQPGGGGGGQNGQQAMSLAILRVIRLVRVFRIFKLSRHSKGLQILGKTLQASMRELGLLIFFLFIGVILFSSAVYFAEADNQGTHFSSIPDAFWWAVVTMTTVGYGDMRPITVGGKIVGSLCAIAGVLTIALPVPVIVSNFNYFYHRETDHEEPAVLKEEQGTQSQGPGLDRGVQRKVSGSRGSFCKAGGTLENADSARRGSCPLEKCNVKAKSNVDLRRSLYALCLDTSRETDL

Compound | chromatographic logD [1] | IC50 [2] [µM] | further results
CN1C(=O)CC[C@H]1CN(Cc1ccc(F)cc1)S(=O)(=O)c1cccc(C#N)c1 | 3.1 | 0.81 | –
O=S(=O)(c1ccccc1F)N(Cc1ccccc1)Cc1ccc(F)cc1 | 6.2 | 4.8 | –
N#Cc1ccccc1S(=O)(=O)N(Cc1ccc(F)cc1)C[C@@H]1CCC(=O)N1 | 2.5 | > 30 | –
N#Cc1cccc(S(=O)(=O)N(Cc2ccccc2Cl)C[C@@H]2CCC(=O)N2)c1 | 2.7 | > 10 | –
O=C1CC[C@@H](CN(Cc2ccc(F)cc2)S(=O)(=O)c2cccc3c2OCCO3)N1 | 3 | > 10 | –
CN1C(=O)CC[C@H]1CN(Cc1ccc(Cl)cc1)S(=O)(=O)c1cccc(C#N)c1 | 3.6 | 0.21 | Activity (Oryctolagus cuniculus [3]): Non-toxic; Time (Oryctolagus cuniculus [4]): < 10 ms; Cp(f)ss (Oryctolagus cuniculus [5]): 0.35 µM; bioavailability [6]: 44%; bioavailability [7]: 45%; half-life [8]: 52.2 min; half-life [9]: 31.8 min; clearance [10]: 31 mL/min/kg; clearance [11]: 45 mL/min/kg; microsomal CLint [12]: 116 µL/min/mg
O=C1CC[C@@H](CN(Cc2ccc(F)cc2)S(=O)(=O)c2cccc(F)c2)N1 | 3.1 | 7.2 | –
CCN1C(=O)CC[C@H]1CN(Cc1ccc(F)cc1)S(=O)(=O)c1cccc(C#N)c1 | 3.5 | 2.8 | –
O=S(=O)(c1ccc(F)cc1)N(Cc1ccc(F)cc1)Cc1ccccn1 | 4.7 | 2 | –
N#Cc1cccc(S(=O)(=O)N(Cc2cccc(Cl)c2)C[C@@H]2CCC(=O)N2)c1 | 3 | 4.3 | –
O=C1CC[C@@H](CN(Cc2ccc(F)cc2)S(=O)(=O)c2ccccc2)N1 | 2.7 | 8.8 | –
N#Cc1ccc(S(=O)(=O)N(Cc2ccc(F)cc2)C[C@@H]2CCC(=O)N2)cc1 | 2.6 | > 30 | –
N#Cc1cccc(S(=O)(=O)N(Cc2ccc(F)cc2)C[C@@H]2CCC(=O)N2)c1 | 2.7 | 2.6 | –
COc1ccc(S(=O)(=O)N(Cc2ccccc2)[C@H]2CCCC[C@@H]2O)cc1 (racemic) | 4.6 | – | IC50 [13]: 2 µM
NC(=O)c1ccc(N(Cc2ccc(F)cc2)S(=O)(=O)c2ccccc2F)cc1 | 3.4 | 2.2 | –
O=C1CC[C@@H](CN(Cc2ccc(F)cc2)S(=O)(=O)c2cc(Cl)cc(Cl)c2)N1 | 4.4 | 8.1 | –
N#Cc1cccc(S(=O)(=O)N(Cc2ccc(F)cc2)C[C@@H]2CCCC(=O)N2)c1 | 2.9 | 7.6 | –
O=C1CC[C@@H](CN(Cc2ccc(F)cc2)S(=O)(=O)c2cccc(Cl)c2)N1 | 3.6 | 0.8 | –
N#Cc1cccc(S(=O)(=O)N(Cc2ccc(Cl)cc2)C[C@@H]2CCC(=O)N2)c1 | 3.1 | 2.2 | –
N#Cc1cccc(S(=O)(=O)N(Cc2ccc(F)cc2)C[C@H]2CCC(=O)N2)c1 | 2.5 | 8.7 | –
N#Cc1cccc(S(=O)(=O)N(CC[C@@H]2CCC(=O)N2)Cc2ccc(F)cc2)c1 | 2.9 | 2.7 | –
CS(=O)(=O)c1cccc(S(=O)(=O)N(Cc2ccc(F)cc2)C[C@@H]2CCC(=O)N2)c1 | 2 | 8.7 | –
O=C1CC[C@@H](CN(Cc2ccc(F)cc2)S(=O)(=O)c2ccc(F)cc2)N1 | 3 | 4.1 | –
N#Cc1cccc(S(=O)(=O)N(CCc2ccc(F)cc2)C[C@@H]2CCC(=O)N2)c1 | 2.9 | > 10 | –
COc1cccc(S(=O)(=O)N(Cc2ccc(F)cc2)C[C@@H]2CCC(=O)N2)c1 | 3.1 | 2 | –
COc1ccc(S(=O)(=O)N[C@H]2CCCC[C@@H]2OCc2ccccc2)cc1 (racemic) | – | – | IC50 [13]: 28 µM
